# Tests used:
# Experiment in all cases: relative viability (nuclei count vs DMSO), 5 days (fraction); higher = more cells survive
# [1] = compound: CC1=CC=C(C=C1)C(=O)CN2C3=C(CCCC3)SC2=N [Pifithrin_alpha]
# How it was run: (§1)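 Lung cancer cell lines in 1536-well plates were kept overnight at 37 °C, then pinned with five library-drug doses (not always all listed) spaced by √10 on vehicle-anchored plates. After 5 days without medium change, cells were fixed, permeabilised and Hoechst-stained in one step, imaged at 4×, and nuclei were counted with MetaXpress. Viability is treated-well nuclei divided by vehicle-well nuclei, taken as the median over plates. Plates passed only with control CV below 25% and at least one doubling.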
# [2] = compound: CNC(=O)c1ccccc1Sc1ccc2c(/C=C/c3ccccn3)n[nH]c2c1 [Axitinib]
# How it was run: as §1
# [3] = compound: Nc1nc(Nc2ccc3c(c2)CC[C@@H](N2CCCC2)CC3)nn1-c1cc2c(nn1)-c1ccccc1CCC2 [Bemcentinib]
# How it was run: as §1
Cell Line,relative viability ([1]; 1 µM),relative viability ([1]; 3.162 µM),relative viability ([1]; 10 µM),relative viability ([1]; 31.62 µM),relative viability ([1]; 100 µM),relative viability ([2]; 0.005 µM),relative viability ([2]; 0.01581 µM),relative viability ([2]; 0.05 µM),relative viability ([2]; 0.1581 µM),relative viability ([2]; 0.5 µM),relative viability ([3]; 0.04 µM),relative viability ([3]; 0.1265 µM),relative viability ([3]; 0.4 µM),relative viability ([3]; 1.265 µM),relative viability ([3]; 4 µM)
201T,0.992,0.781,0.679,0.646,0.724,0.994,0.936,0.953,0.964,0.955,0.943,0.982,1.05,0.947,1.01
A549,1.03,1.01,1,0.889,1.01,0.997,0.95,0.95,0.877,1.02,0.977,1.13,0.984,1.04,1.02
A-427,0.975,0.957,0.804,0.788,1.02,1.02,0.93,1.02,1.02,0.964,0.935,1.11,1.05,0.93,0.931
ABC-1,0.523,0.85,0.788,0.55,0.731,0.945,0.863,0.985,0.812,1.08,0.78,1.14,1.16,0.865,0.984
BEN,0.854,1.02,1.14,0.93,1.08,0.958,1.01,0.902,0.868,0.741,0.833,1.13,1.08,0.919,0.894
CAL-12T,0.778,1,0.937,0.711,0.765,1.03,1,0.983,0.94,0.977,0.989,1.02,1.06,1.02,1.01
COR-L23,1.07,1.09,0.977,,0.94,1.05,0.93,1.06,0.923,1.05,1.03,1.17,1.14,1.18,1.12
COR-L 105,0.792,0.841,0.862,0.695,0.758,0.995,0.786,1.02,0.868,1.2,0.726,0.964,1.06,0.912,1.04
Calu-6,1.06,1.05,1,0.655,0.899,1.08,0.999,1.03,1,1.12,1.07,1.15,1.13,1.08,1.05
ChaGo-K-1,0.882,0.987,1,0.842,1.05,1.06,1.02,1.05,0.922,0.936,1.01,0.966,1.03,0.938,0.929
EBC-1,0.973,0.996,0.794,0.582,0.723,1.15,0.995,1.05,0.956,1.08,1.02,1.2,1.09,0.999,1.22
EKVX,0.984,0.861,0.858,0.738,0.695,1.01,0.963,0.917,0.88,0.99,0.793,1.09,1.02,1.03,1.03
EMC-BAC-2,0.716,1.02,0.617,0.799,0.93,1,0.925,0.977,0.957,0.771,0.956,0.939,1.07,0.955,0.978
EPLC-272H,0.622,0.892,0.859,0.755,0.802,0.943,0.832,0.938,0.896,0.83,0.749,0.991,1.01,0.906,0.841
H3255,0.856,0.93,0.945,0.71,0.795,0.985,0.851,0.912,0.894,0.896,0.804,0.994,0.993,0.951,0.964
HARA,0.906,0.783,0.916,0.65,0.853,1.05,0.79,0.887,0.756,1.12,0.899,1.28,0.995,0.82,0.951
HCC-15,0.938,1.02,0.931,0.674,0.808,1.06,0.99,1,0.98,0.947,0.964,1.13,1.05,1.07,1.07
HCC-44,0.819,0.911,0.911,0.736,0.856,1.01,0.971,0.977,0.987,0.988,0.984,1.03,1.01,1.02,0.988
HCC-78,0.669,0.892,0.815,0.694,0.823,0.978,1.02,0.893,0.936,0.867,0.752,0.926,1.07,0.791,0.957
HCC-366,1.01,0.974,1.01,,1.04,0.99,0.999,1.06,1,1.04,1.07,1.07,0.987,0.986,0.995
HCC-827,1.03,1.02,0.977,0.809,0.896,1.03,1.01,1.06,1.1,1.15,1.07,1.05,0.994,0.976,1.06
HOP-62,0.952,1.1,1.06,0.791,1.12,1.01,0.965,1.03,1.01,1.03,1.01,1.15,0.999,1.02,1.04
IA-LM,0.853,0.993,0.555,0.491,0.418,1.03,0.954,0.987,0.999,0.88,0.946,1.19,0.975,0.995,0.977

Cell Line,relative viability ([1]; 1 µM),relative viability ([1]; 3.162 µM),relative viability ([1]; 10 µM),relative viability ([1]; 31.62 µM),relative viability ([1]; 100 µM),relative viability ([2]; 0.005 µM),relative viability ([2]; 0.01581 µM),relative viability ([2]; 0.05 µM),relative viability ([2]; 0.1581 µM),relative viability ([2]; 0.5 µM),relative viability ([3]; 0.04 µM),relative viability ([3]; 0.1265 µM),relative viability ([3]; 0.4 µM),relative viability ([3]; 1.265 µM),relative viability ([3]; 4 µM)
LC-2-ad,0.702,1,0.96,0.697,0.832,1,0.963,1.03,0.956,1.02,0.903,0.988,0.99,0.971,0.972
LCLC-97TM1,,0.934,1.13,,0.975,1.06,1.02,0.986,0.892,0.822,0.997,1.09,0.801,1.03,0.982
LCLC-103H,0.996,0.974,0.959,0.848,0.887,0.946,0.973,1,0.959,0.867,0.992,1.07,0.96,1.04,0.994
LK-2,0.975,1.18,1.12,,1.25,0.976,0.746,0.816,0.823,0.822,0.969,1.26,1.25,1.06,1.01
LOU-NH91,0.774,0.911,0.878,0.731,0.765,0.989,0.796,1.05,0.973,1,0.912,0.955,1,0.984,0.997
LU99A,0.941,0.89,0.903,,0.869,0.903,1.02,1.03,0.883,0.904,0.903,1.02,0.98,1.02,1.02
LXF-289,1.02,1.02,0.98,0.941,0.977,1.01,0.971,0.994,0.963,1.05,1.03,1.09,1.06,1.06,1.05
NCI-H23,0.847,0.846,0.959,0.582,0.787,1.02,0.954,1.15,0.926,0.97,0.92,1.24,1.13,0.838,1.06
NCI-H322M,0.906,0.891,1.01,0.851,0.869,1.03,0.847,0.992,0.813,1.03,0.873,0.966,0.982,0.953,0.998
NCI-H358,0.825,0.94,0.924,0.733,0.945,0.947,0.957,1.05,0.87,1.14,0.915,0.941,0.997,1.01,1.07
NCI-H441,1.08,1.21,1.03,0.721,1.23,1.07,1.07,1.11,1.22,1.1,1.01,1.23,1.04,0.915,1.26
NCI-H460,1.06,0.949,0.872,0.592,0.837,0.976,0.981,1.05,1.01,1.1,0.973,1.1,1.06,1.07,1.01
NCI-H520,1.05,0.916,0.96,0.763,1.1,0.974,0.737,1.07,0.765,0.992,0.868,1.08,0.992,1.02,1.08
NCI-H522,0.79,1.12,0.947,0.85,0.972,0.914,0.969,0.996,0.882,0.693,0.927,0.96,1.06,0.9,0.879
NCI-H596,1.12,0.886,0.958,0.973,0.996,1.04,0.956,1.03,1.06,0.947,0.883,1.03,0.924,0.908,1.07
NCI-H647,0.949,0.916,0.889,0.722,0.849,1.14,0.97,1.03,0.968,1.15,1.06,1.09,0.989,0.971,1.03
NCI-H661,0.948,1.01,0.988,1.02,0.873,1.01,1.02,0.987,0.96,1.02,0.965,1.07,0.994,1.01,0.964
NCI-H727,0.829,0.841,0.883,0.587,0.837,1.01,0.881,0.991,0.86,0.972,0.869,1.08,1.19,1.01,1.2
NCI-H838,0.856,0.807,0.854,0.735,0.643,0.992,0.944,1.01,0.933,1.03,0.946,1.08,1,1.02,1.03
NCI-H1299,0.997,1.06,1.02,0.812,1.02,1.04,1,1.05,1,1.08,1.02,1.02,1.05,0.994,1.05
NCI-H1355,0.849,0.808,0.645,0.565,0.713,0.945,1.01,1.05,0.968,0.901,0.992,1.08,1.09,0.974,1.06
NCI-H1395,,0.902,0.915,0.693,0.85,0.992,0.719,0.985,0.886,0.878,0.893,1.02,0.952,0.892,0.838
NCI-H1437,1.02,1.05,0.953,0.827,0.793,1.05,0.991,0.961,0.983,1.01,0.925,1.01,1.03,0.965,0.969

# From the supplement of paper PMC10307832
